Patent US8637461B2, “Method of diagnosing and treating oxidative stress-impaired wound healing” (Kuwait University, priority 2011, dated 2014)

How the values were obtained:
[1] = test system: reactive oxygen species (ROS); experiment: ROS generation in cultured fibroblasts (DCF-DA); format: cell-based, rat; settings: fibroblasts with diabetic, inflammatory or hypercortisolemia phenotypes; ROS suppressors
Procedure: (§1) Primary dermal fibroblasts were obtained from dorsal skin of female Goto Kakizaki (GK, age 12-15 months) rats, a model for non-obese type 2 diabetes, and their Wistar control counterparts. After sterilization in povidine solution, rat skin was washed in sterile water and rinsed in 70% ethanol in PBS. Epidermis and dermis were separated following overnight incubation in 0.25% trypsine/EDTA at 4 C. Dermis was cut into small pieces and incubated in Dulbecco's modified Eagle medium (DMEM; Invitrogen) containing collagenase (250 U/ml; Sigma) for thirty min at 37 C in 5% CO2 with constant agitation. The sections were triturated vigorously to release fibroblasts, which were collected by centrifugation. The cell pellet was washed two times with PBS, re-suspended in complete medium (DMEM supplemented with 10% fetal calf serum, penicillin (100 U/ml), streptomycin (100 μg/ml)), 2 mM L-glutamine and 10 mM HEPES) and then cultured under a standard condition.
(§2) A hypercortisolemic state was mimicked by exposing control fibroblasts to dexamethasone (Dexa, Sigma) administered at 20 ng/ml every other day for a duration of 8 days. Similarly, the state of low-grade inflammation in fibroblasts was recapitulated experimentally by exposing these cells to TNF-α (4 ng/ml every day for 4 days). […] The concentration of IGF-1 (50 ng/ml, Peprotech) was determined by prior dose response experiment.
ROS generation in cultured fibroblasts was evaluated using dichloroflurescein-diacetate (DCF-DA, Molecular Probes), a probe that is oxidized to the fluorescent product DCF upon exposure to hydrogen peroxide, peroxynitrite, hydroxyl radical and nitric oxide. Its concentration serves as an indicator of the overall degree of intracellular oxidative stress.
Cells seeded in 96-well plates were incubated for thirty minutes at 37 C in serum free media containing 5 μM of DCF-DA. The plates were then washed twice with Krebs Ringer Buffer (KR) and the fluorescence readings were taken every 15 min for 1 hr at Ex=485 and Em=530. Subtracted background values were obtained from wells containing DCF-DA without cells. […]

IRS-1 = IRS-1 Tyr612 phosphorylation, immunoprecipitation/western blotting in dermal fibroblasts; format: cell-based, rat
Procedure: as §1, §2
Levels/activities of key intracellular molecules in the IGF-1 signaling cascade including IRS-1, IRS-1 Tyr-p-612, PI3K-p85α, IRS-1 Ser-p (307), PI3K, Akt, p-Akt, INK and p-JNK were assessed using western blotting/immunoprecipitation and commercially available ELISA-based assays.
Ice-cold radioimmunoprecipitation assay (RIPA) buffer was used for the extraction of proteins from fibroblasts. Immunoprecipitation was achieved by incubating cell homogenates with anti-IRS-1 antibody overnight at 4° C. followed by the addition of protein A/G-Agarose for additional two hours. Immunoprecipitates were separated using spin-collection filters (Cytosignal), washed once with RIPA buffer/3× with PBS and then elutated by the addition of Laemmli buffer. […] Antigen-antibody complexes were visualized by an enhanced chemiluminescence system on BioMax Light Film (Kodack) and then the densitometry was analyzed using Quantity One 1-D image software (BioRad, GS 800). All densitometry data were corrected for equal loading using the house keeping gene β-actin and they were expressed as fold change vs. control.

dermal fibroblasts [2] = experiment: BrdU cell proliferation assay in fibroblasts; format: cell-based, rat
Procedure: as §1, §2
(§3) The proliferation and collagen synthesis of cultured fibroblasts were determined using, respectively the 5-bromo-2-deoxyuridine (BrdU) incorporation into DNA and a radiolabelled proline uptake assay.
Cells were seeded into 96-microtiter plates at a concentration of 1.5×10^4 and allowed to adhere overnight in DMEM supplemented with 10% FCS. After arrest by incubation in DMEM supplemented with 0.5% FCS for 24 hrs, cells were exposed to IGF-I (50 ng/ml) in DMEM containing […] 5-bromo-2-deoxyuridine (BrdUrd). Incorporation of BrdUrd into DNA was estimated using 5-bromo-2-deoxyuridine labeling and detection kit (Roche Applied Science) according to the manufacturer's instructions.

[3] = Rapid insulin sensitivity test (RIST) with IGF-1 instead of insulin; format: in vivo, rat
Procedure: (§4) All animal procedures were performed in accordance with the NIH Guidance for the Care and Use of Laboratory Animals. The current study used, respectively the GK and Dexamethasone-treated rats as models for diabetes and hypercortisolemia. Dexamethasone was administered subcutaneously at a dose of 2.5 μg/kg body weight in the morning (8:00 AM) and in the evening (8:00 PM) for a duration of four weeks before wounding and this form of therapy continued during the course of healing. […] Weight and age-matched female Wistar rats (Kuwait University breeding colony) served as the corresponding controls. All of the animals were maintained under standard conditions with 12 hours on/off light cycle, commercial diet, and water ad libitum. GK rats destined for wounding were initially matched with regard to body weight (e.g., 230 to 250 g), and plasma levels of glucose, free fatty acids and insulin. These indices are commonly used to reflect the severity of the diabetic state.
(§5) Animals used for IGF-1 sensitivity (n=6/group) and wound healing (n=8) studies were partitioned into five study groups including control, diabetic, hypercortisolemic, diabetic+EUK and hypercortisolemic+EUK. The EUK-134 was administered for duration of four weeks before wound induction and it continued during the course of healing.
IGF-1 sensitivity in control, diabetic and hypercortisolemic animals was determined using the rapid insulin sensitivity test (RIST) with IGF-1 (200 μg/kg BW) infused instead of insulin. The RIST index is the amount of glucose per kg body weight required to maintain euglycemia following a bolus of insulin (50 mU/kg BW).

[4] = Body weight and fasting plasma parameters in diabetic and hypercortisolemic rats; format: in vivo, rat
Procedure: as §4, §5

excisional wounds = experiment: Full-thickness excisional wound healing, 7 days; format: in vivo, rat; settings: diabetic/hypercortisolemic rat wounds, antioxidant administered
Procedure: as §4, §5
Animals derived from various experimental groups were anesthetized by ip, injection of 90 mg ketamine+10 mg xylazine/kg body weight, and their back skin was shaved, depilated with Nair and cleaned with 70% alcohol. Six bilateral full-thickness excisional wounds (8 mm in diameter) at equidistant from midline were created on the dorso-rostral back skin. Wounds were separated by a minimum of 1 cm of uninjured skin. […] The wound area was analyzed using Adobe PhotoShop (version 7.0; Adobe Systems) and the percentage of wound closure was derived by the following formula: (1−[current wound size/initial wound size])×100.

PI3K-p85α / IRS-1 = experiment: Co-precipitation of PI3K p85α with IRS-1 in dermal fibroblasts; format: cell-based, rat; settings: fibroblasts exposed to IGF-1
Procedure: as §1, with “The cell pellet was washed two times with PBS, re-suspended in complete medium (DMEM supplemented with 10% fetal calf serum, penicillin (100 U/ml), streptomycin (100 μg/ml)), 2 mM L-glutamine and 10 mM HEPES) and then cultured under a standard condition.” left out
(§6) A hypercortisolemic state was mimicked by exposing control fibroblasts to dexamethasone (Dexa, Sigma) administered at 20 ng/ml every other day for a duration of 8 days. […] The concentration of IGF-1 (50 ng/ml, Peprotech) was determined by prior dose response experiment.
(§7) Levels/activities of key intracellular molecules in the IGF-1 signaling cascade including IRS-1, IRS-1 Tyr-p-612, PI3K-p85α, IRS-1 Ser-p (307), PI3K, Akt, p-Akt, INK and p-JNK were assessed using western blotting/immunoprecipitation and commercially available ELISA-based assays. […]

Akt [5] = experiment: Akt phosphorylation, FACE cell-based ELISA in fixed fibroblasts; set-up: species or system rat; settings: normal fibroblasts exposed to IGF-1
Procedure: as §1, with “The cell pellet was washed two times with PBS, re-suspended in complete medium (DMEM supplemented with 10% fetal calf serum, penicillin (100 U/ml), streptomycin (100 μg/ml)), 2 mM L-glutamine and 10 mM HEPES) and then cultured under a standard condition.” left out
as §6
Activation of Akt and JNK was analyzed in fixed fibroblasts using FACE-Akt and FACE-JNK (both from Active Motife). […] Labeling with antibodies was conducted according to the manufacturer's protocol and the resulting phosphoantibody signal was calculated after correction for number of cells and total Akt or JNK levels in each sample. […]

dermal fibroblasts [6] = experiment: Radiolabelled proline uptake assay (collagen synthesis) in fibroblasts; format: cell-based, rat; settings: control fibroblasts, IGF-1
Procedure: as §1, with “The cell pellet was washed two times with PBS, re-suspended in complete medium (DMEM supplemented with 10% fetal calf serum, penicillin (100 U/ml), streptomycin (100 μg/ml)), 2 mM L-glutamine and 10 mM HEPES) and then cultured under a standard condition.” left out
as §6, §3
A radiolabel proline uptake assay was used in the quantification of the rate of collagen synthesis in cultured fibroblasts derived from various experimental groups. […]

[7] = diabetic patients, cited from earlier work
PI3K = PI3K ELISA kinase assay on fibroblast lysates; format: cell-based, rat; settings: fibroblasts exposed to IGF-1
Procedure: as §1, §6
PI3K activity was measured using PI3K ELISA (Echelon Biosciences Inc). […]

Akt [8] = experiment: Akt phosphorylation, western blotting in dermal fibroblasts; format: cell-based, rat; settings: normal fibroblasts exposed to IGF-1; western blot
Procedure: as §1, with “The cell pellet was washed two times with PBS, re-suspended in complete medium (DMEM supplemented with 10% fetal calf serum, penicillin (100 U/ml), streptomycin (100 μg/ml)), 2 mM L-glutamine and 10 mM HEPES) and then cultured under a standard condition.” left out
as §6, §7

[9] = fibroblasts with diabetic, inflammatory or hypercortisolemia phenotypes, ROS suppressors
[10] = Wistar rats, dexamethasone 2.5 μg/kg sc twice daily (hypercortisolemia model)

O=C(O)CCCCC1CCSS1 (stereo not drawn) [α-lipoic acid]
HSOS (oxidative stress) [1]: lessen the HSOS | common defect in IGF-1 signaling (IRS-1; [9]): correct the common defect in IGF-1 signaling | impairment in key fibroblast functions (collagen synthesis, cell proliferation, migration, contraction) (dermal fibroblasts [2]; [9]): ameliorates | improvement of glucose metabolism in response to bolus injection of IGF-1 ([3]; diabetic/hypercortisolemic rats, chronic administration of antioxidant): about 20% | abnormalities regarding lipid and carbohydrate profiles ([4]; diabetic and hypercortisolemic rats, chronic treatment with ROS suppressors): ameliorated | healing rates of wounds (excisional wounds): statistically indistinguishable from control rat wounds treated with IGF-1 alone

C[C@@H]1C[C@H]2[C@@H]3CCC4=CC(=O)C=C[C@]4(C)[C@@]3(F)[C@@H](O)C[C@]2(C)[C@@]1(O)C(=O)CO [Dexa, dexamethasone]
FBG (fasting blood glucose) [4, 10]: 78 ± 9 mg/dL | FFA (free fatty acid) [4, 10]: 706 ± 25 µM | FPI (fasting plasma insulin) [4, 10]: 0.78 ± 0.061 ng/mL

IGF-1
phosphorylation of Tyr612 on IRS-1 (IRS-1; control fibroblasts exposed to IGF-1 (50 ng/ml)): induces rapid phosphorylation | increase in BrdU incorporation compared with medium only control (dermal fibroblasts [2]; control fibroblasts, IGF-1 50 ng/ml, 24 hours): ~5 fold | reduction of IGF-1 action in inducing DNA synthesis (dermal fibroblasts [2]; diabetic fibroblasts): about 46% | reduction of IGF-1 action in inducing DNA synthesis (dermal fibroblasts [2]; hypercortisolemic fibroblasts): ~36% | PI3K activation (p85α co-precipitated with IRS-1) (PI3K-p85α / IRS-1): activates PI3K | glucose metabolized in response to bolus injection of IGF-1 (RIST) ([3]; rats with diabetic complications or chemically-induced hypercortisolemia): about 125 mg glucose per kg body weight | glucose metabolized in response to bolus injection of IGF-1 (RIST) ([3]; untreated rats): 175 mg glucose per kg | Akt phosphorylation (Akt [5]): phosphorylated (activated) | increase in collagen synthesis (dermal fibroblasts [6]): about 63% | glucose metabolism response to IGF-1 ([7]; 26 pmol continuous infusion): virtually no response | decrease of response to IGF-1 relative to healthy adults ([7]; 52 pmol continuous infusion): ~40% | PI3K enzymatic activity (PI3K): increases PI3K enzymatic activity | Akt phosphorylation (Akt [8]): phosphorylated (activated)
